The values that follow come from US6770674B1, “Mollusc repellent” (priority 1998, dated 2004).

“And” between values parts separate entries of the source, which are not always exact repeats. Identical values can stand only once.

One data set concerns Human. Conditions: oral; cited from earlier work.
In a further data set the test system is Rat. Particulars: oral; cited from earlier work.
The subject of another data set is juvenile Helix aspersa. Kind of data set: Attractancy/repellency test, sectorised filter technique of Bowen and Antoine. Conditions: for % Sector Eaten Control / % Sector Eaten Test: overnight; for repellency to snails (summary in words): arena trials, Helix aspersa. On the set-up: key to Final Position: R: roof of the container; T: test sector; C: control sector. The data set is classed as in vivo. The method, then:
One sector of the filter paper was used as the control and this was moistened with distilled water (1 ml). The other half was moistened with the test compound. […] The paper containing the copper oxalate was moistened with water after the addition of the chemical.
Filter sectors were placed on the lid of a plastic tub. The tub was inverted and was used to make a closed test arena. A small gap of 2 mm was left between the two filter sectors so as to prevent mixing of the test paper with the control. One juvenile Helix aspersa was introduced to the control sector and was allowed to remain in the arena overnight.
Attractancy/repellency was detected by dusting the filter paper with charcoal to reveal the slug trails. The results were quantified by placing a transparent grid over the test sectors and measuring the area covered by snail trails. Any phagostimulatory effect of the test compound was indicated by the consumption of the treated paper.

Data set [1] concerns slug, Deroceras reticulatum. Briefly: Protection of wheat and pea seeds compared to BAYSOL and […] (Example 3). The data set is classed as in vivo. As to the method: In the following experiment, the efficacy of copper oxalate for the protection of seeds was tested and compared to BAYSOL® and […]®. Seeds were coated with an aqueous suspension of copper oxalate, dried and fed to the slug, Deroceras reticulatum.

A further data set relates to snail, Cernuella virgata. Briefly: Repellency of copper oxalate in a PVA coating (paint) composition on paper towel (Example 4). In kind it is in vivo. The text has this:
In the following experiment, the repellency of copper oxalate was investigated when incorporated in a paint composition. In this example, the carrier used was a common aqueous PVA solution sold in Australia under the brand name of Bond Crete.
Thirty-three 1 liter containers were used each with 3 layers of paper towel covering the bottom of the container. Half of the uppermost surface of each of the paper towels was coated with a solution made from 1 part copper oxalate: 10 parts water: 1 part PVA emulsion. This coating was applied at a rate of about 2 ml per 100 cm2 and allowed to dry. The towel was then moistened with approximately 20 ml of water. One snail, Cernuella virgata, was placed in the centre of the paper towels at the border of the coated and the uncoated half in each container. […] The snails consumed some of the untreated paper. […] After 7 days, the number of snails on the treated and untreated sections of the paper towel were counted, together with the number on the sides and lid of the container.

The test system of data set [2] is slug, Deroceras reticulatum. Briefly: Protection of coated seeds fed to slugs (Example 2). In kind it is in vivo. Particulars: for % Seeds damaged Broad beans After 7 days: coated broad beans; for % Seeds damaged Pea seeds After 5 days / % Seeds damaged Pea seeds After 7 days: coated pea seeds; for % Seeds damaged Wheat seeds After 5 days / % Seeds damaged Wheat seeds After 7 days: coated wheat seeds. An excerpt: In the following experiment, various seeds were coated with copper oxalate and ferric potassium oxalate, respectively and fed to the slug, Deroceras reticulatum. The damage to these seeds was compared to damage to control seeds, which were left untreated.

The mark [3] stands for this setting: after 7 days, 33 containers with one snail each, same coating.

Regarding `[Cu+2].[OH-].[OH-]` [Copper hydroxide], in the data set with Human, the “LD50 (Human)” value was 200 mg/kg.

As to Copper acetate, the “LD50 (Rat)” value in the data set on Rat is listed as 595 mg/kg.

For `O=C([O-])C(=O)[O-].[Cu+2]` [Copper oxalate, copper oxalate], the “% Sector Eaten Control” value in the data set on juvenile Helix aspersa (1.61 mg/cm2, control sector of same arena) was determined as 4%; in the data set with juvenile Helix aspersa (2.11 mg/cm2, control sector of same arena), 5%; in the data set on juvenile Helix aspersa (2.43 mg/cm2, control sector of same arena), 2%; in the data set with juvenile Helix aspersa (2.47 mg/cm2, control sector of same arena), 5%; with juvenile Helix aspersa (3.19 mg/cm2, control sector of same arena), 2%; in the data set with juvenile Helix aspersa (3.46 mg/cm2, control sector of same arena), 1%. In addition, the “Final Position” value is reported as “R” with juvenile Helix aspersa (1.61 mg/cm2, overnight); “R” with juvenile Helix aspersa (2.11 mg/cm2, overnight); “R” in the data set on juvenile Helix aspersa (2.43 mg/cm2, overnight); “R” in the data set on juvenile Helix aspersa (2.47 mg/cm2, overnight); “C” in the data set with juvenile Helix aspersa (3.19 mg/cm2, overnight); “R” in the data set on juvenile Helix aspersa (3.46 mg/cm2, overnight). Further, the “% Sector Eaten Test” value in the data set with juvenile Helix aspersa (1.61 mg/cm2, test sector) was 0%; in the data set with juvenile Helix aspersa (2.11 mg/cm2, test sector), 0%; in the data set on juvenile Helix aspersa (2.43 mg/cm2, test sector) it was 0%; with juvenile Helix aspersa (2.47 mg/cm2, test sector) it was 0%; with juvenile Helix aspersa (3.19 mg/cm2, test sector), 0%; with juvenile Helix aspersa (3.46 mg/cm2, test sector), 0%. In addition, the “% Covered Control” value in the data set on juvenile Helix aspersa (1.61 mg/cm2, trail cover of control sector of same arena) came to 88%; in the data set with juvenile Helix aspersa (2.11 mg/cm2, trail cover of control sector of same arena), 71.1%; in the data set with juvenile Helix aspersa (2.43 mg/cm2, trail cover of control sector of same arena), 68.9%; in the data set with juvenile Helix aspersa (2.47 mg/cm2, trail cover of control sector of same arena) it was 86.7%; in the data set with juvenile Helix aspersa (3.19 mg/cm2, trail cover of control sector of same arena), 88%; with juvenile Helix aspersa (3.46 mg/cm2, trail cover of control sector of same arena), 66.7%. For the same compound, the “% Covered Test” value in the data set on juvenile Helix aspersa (1.61 mg/cm2, trail cover of test sector) was determined as 4.4%; in the data set on juvenile Helix aspersa (2.11 mg/cm2, trail cover of test sector), 0%; in the data set on juvenile Helix aspersa (2.43 mg/cm2, trail cover of test sector) it was 0%; in the data set with juvenile Helix aspersa (2.47 mg/cm2, trail cover of test sector), 0%; with juvenile Helix aspersa (3.19 mg/cm2, trail cover of test sector), 0%; in the data set with juvenile Helix aspersa (3.46 mg/cm2, trail cover of test sector), 4.4%. Moreover, in the data set on juvenile Helix aspersa, the “repellency to snails (summary in words)” value is “strongly repelled”. In addition, the “% Seeds damaged Pea seeds After 7 days” value was 8% in data set [1] (pea seeds, 7 days) and 7% in data set [2]. Besides, the “% Seeds damaged Wheat seeds After 9 days” value in data set [1] (wheat seeds, 9 days) is 10%. For the same compound, the “repellency in a coating composition (summary in words)” value with snail, Cernuella virgata (PVA coating composition) was “functions effectively as a mollusc repellent”. Also, the “No. of snails in area: On lid of container” value with snail, Cernuella virgata (after 7 days, 33 containers with one snail each, coating 1 part copper oxalate: 10 parts water: 1 part PVA emulsion) was determined as 1. In the data set with snail, Cernuella virgata (setting [3]), the “No. of snails in area: On Treated half of paper” value stood at 8. Moreover, in the data set with snail, Cernuella virgata (setting [3]), the “No. of snails in area: On side of container” value is listed as 1. Besides, the “No. of snails in area: On untreated half of paper” value in the data set on snail, Cernuella virgata (setting [3]) was 23. For the same compound, the “consumption of the treated paper” value in the data set on snail, Cernuella virgata (coated half of paper towel, 7 days) is reported as “No consumption”. The “% Seeds damaged Broad beans After 7 days” value in data set [2] is recorded as 5%. Moreover, in data set [2], the “% Seeds damaged Pea seeds After 5 days” value is reported as 7%. In addition, in data set [2], the “% Seeds damaged Wheat seeds After 5 days” value was 0%. Moreover, the “% Seeds damaged Wheat seeds After 7 days” value in data set [2] was determined as 2%. The “slug repellency for seeds (summary in words)” value in data set [2] (wheat and pea seeds) was “very effective slug repellent”.

For the compound `O=C([O-])C(=O)[O-].O=C([O-])C(=O)[O-].O=C([O-])C(=O)[O-].[Fe+3].[K+].[K+].[K+]` [Ferric potassium oxalate, ferric potassium oxalate], in data set [2], the “% Seeds damaged Broad beans After 7 days” value worked out at 0%, the “% Seeds damaged Pea seeds After 5 days” value is listed as 15%, the “% Seeds damaged Pea seeds After 7 days” value is on record as 17% and the “% Seeds damaged Wheat seeds After 5 days” value is recorded as 3%. In data set [2], the “% Seeds damaged Wheat seeds After 7 days” value is listed as 20%.

`[Cl-].[Cu+2].[Cu+2].[OH-].[OH-].[OH-]` [Copper oxychloride]: in the data set on Rat, the “LD50 (Rat)” value is listed as 700 mg/kg.

On to “cetyl tertiary ammonium bromide [CeTAB, reference compound]”, for which the “% Sector Eaten Control” value was 4% and 1% and 2% with juvenile Helix aspersa (0.2 mg/cm2, control sector of same arena); 4% and 5% and 3% with juvenile Helix aspersa (2.0 mg/cm2, control sector of same arena). Further, the “Final Position” value in the data set on juvenile Helix aspersa (0.2 mg/cm2, overnight) is on record as “R”; with juvenile Helix aspersa (2.0 mg/cm2, overnight) it was “R”. For the same compound, the “% Sector Eaten Test” value in the data set with juvenile Helix aspersa (0.2 mg/cm2, test sector) worked out at 0%; in the data set on juvenile Helix aspersa (2.0 mg/cm2, test sector), 0%. The “% Covered Control” value in the data set on juvenile Helix aspersa (0.2 mg/cm2, trail cover of control sector of same arena) is 77.8% and 75.6% and 86.7%; in the data set with juvenile Helix aspersa (2.0 mg/cm2, trail cover of control sector of same arena) it was 62.2% and 66.6% and 71.1%. Also, the “% Covered Test” value in the data set on juvenile Helix aspersa (2.0 mg/cm2, trail cover of test sector) is 0%. For the same compound, in the data set on juvenile Helix aspersa, the “repellency to snails (summary in words)” value is recorded as “act as a repellent”.
